Experimental data: patent publication US5206239A, “Pyrroloazepine derivatives” (Suntory Limited, priority 1990, dated 1993)
Where two headings read alike, the source gives them in different places.

Columns and labels:
[1] = Anti-serotonin action (anti-5-HT action): inhibition of serotonin-induced phasic contraction of isolated guinea pig superior mesenteric artery; design: species or system guinea pig (Hartley, male); conditions: phasic contraction induced by 10^-5 M serotonin = 100%, read-out: Anti 5-HT action (percent contraction, % of Control); for remaining activity at 1 µM: 10^-6 M test drug; for remaining activity at 0.1 µM: 10^-7 M test drug
Description: (§1) With respect to the compounds of the present invention, their anti-α1 action and anti-serotonin action were investigated by the testing methods which will be described below.
Taking the phasic contraction induced by 10^-5 M serotonin as 100%, the percent contractions in the presence of each test drug at 10^-7 and 10^-6 M were determined as anti-5-HT action.

α1 = test: Anti-α1 action: inhibition of norepinephrine-induced tonic contraction of isolated guinea pig thoracic aorta; design: species or system guinea pig (Hartley, male); conditions: tonic contraction induced by 10^-5 M norepinephrine = 100%
Description: as §1
The thoracic aorta of each Hartley male guinea pig (body weight: 300-500 g) was excised. […] Taking the tonic contraction induced by 10^-5 M norepinephrine (NE) as 100%, the percent contractions upon addition of each test drug at 10^-8 and 10^-7 M were determined as anti-α1 action.

Row | SMILES | remaining activity at 1 µM [1] [%] | remaining activity at 0.1 µM [1] [%] | Anti α1 action (percent contraction, % of Control) (α1; 10^-7 M test drug, 0.1 µM) | Anti α1 action (percent contraction, % of Control) (α1; 10^-8 M test drug, 0.01 µM) | remaining activity at 1 µM ([1]; guinea pig) [%] | remaining activity at 0.1 µM ([1]; guinea pig) [%]
1 | O=C1CCN(Cc2ccccc2)C(=O)c2c1ccn2CCCCN1CCC(c2ccccc2)CC1 [Compound No. 48, 7-Benzyl-1-[4-(4-phenylpiperidin-1-yl)butyl]-6,7-dihydropyrrolo[2,3-c]azepine-4,8(1H,5H)-dione] | 49 | 88 | 37.7 % of Control | 77.4 % of Control | – | –
2 | CN1CCC(=NO)c2ccn(CCCCN3CCC(c4ccccc4)CC3)c2C1=O [Compound No. 51, 4-hydroxyimino-7-methyl-1-[4-(4-phenylpiperidin-1-yl)butyl]-6,7-dihydropyrrolo-[2,3-c]azepin-8(1H,5H)-one] | 54.4 | 84.4 | 30.8 % of Control | 74.9 % of Control | – | –
3 | CN1CCC(=O)c2ccn(CCCCN3CCC(C(O)(c4ccc(F)cc4)c4ccc(F)cc4)CC3)c2C1=O [Compound No. 54, 1-[4-[4-[Bis(4-fluorophenyl)hydroxymethyl]-piperidin-1-yl]butyl]-7-methyl-6,7-dihydropyrrolo[2,3-c]azepine-4,8(1H,5H)-dione] | 14.7 | 62.9 | 26.0 % of Control | 90.4 % of Control | – | –
4 | CN1CCC(=O)c2ccn(CCCCN3CCC(C(=O)c4ccc(F)cc4)CC3)c2C1=O [Compound No. 60, 1-[4-[4-(4-fluorobenzoyl)piperidin-1-yl]butyl]-7-methyl-6,7-dihydropyrrolo[2,3-c]azepine-4,8(1H,5H)-dione] | – | – | 20.5 % of Control | 43.9 % of Control | 11.8 | 62.9
5 | CN1CCC(=NO)c2ccn(CCCCN3CCC(C(=O)c4ccc(F)cc4)CC3)c2C1=O [Compound No. 61, 1-[4-[4-(4-fluorobenzoyl)piperidin-1-yl]butyl]-4-hydroxyimino-7-methyl-6,7-dihydropyrrolo[2,3-c]azepin-8-(1H,5H)-one] | 4.1 | 12.1 | 21.4 % of Control | 44.7 % of Control | – | –
6 | CN1CCC(=NO)c2ccn(CCCCN3CCC(C(=O)c4ccc(F)cc4)CC3)c2C1=O.Cc1ccc(S(=O)(=O)O)cc1 [Compound No. 62, 1-[4-[4-(4-fluorobenzoyl)piperidin-1-yl]butyl]-4-hydroxyimino-7-methyl-6,7-dihydropyrrolo[2,3-c]azepin-8(1H,5H)-one p-toluenesulfonate] | – | – | 17.1 % of Control | 26.8 % of Control | 8.2 | 47.4
7 | CCN1CCC(=NO)c2ccn(CCCCN3CCC(C(=O)c4ccc(F)cc4)CC3)c2C1=O [Compound No. 65, 7-ethyl-1-[4-[4-(4-fluorobenzoyl)-piperidin-1-yl]butyl]-4-hydroxyimino-6,7-dihydro-pyrrolo[2,3-c]azepin-8-(1H,5H)-one] | 3.6 | 19.9 | 9.9 % of Control | 19.5 % of Control | – | –
8 | O=C(c1ccc(F)cc1)C1CCN(CCCCn2ccc3c2C(=O)N(Cc2ccccc2)CCC3=NO)CC1 [Compound No. 66] | 6.9 | 77.6 | 10.4 % of Control | 19.3 % of Control | – | –
9 | CCCN1CCC(=NO)c2ccn(CCCCN3CCC(C(=O)c4ccc(F)cc4)CC3)c2C1=O [Compound No. 75, 1-[4-[4-(4-Fluorobenzoyl)piperidin-1-yl]butyl]-4-hydroxyimino-7-propyl-6,7-dihydropyrrolo[2,3-c]-azepin-8(1H,5H)-one] | 8.2 | 12.9 | 17.9 % of Control | 37.0 % of Control | – | –
10 | O=C1CCNC(=O)c2c1ccn2CCCCN1CCC(C(=O)c2ccc(F)cc2)CC1 [Compound No. 81, 1-[4-[4-(4-Fluorobenzoyl)piperidin-1-yl]butyl]-6,7-dihydropyrrolo[2,3-c]azepine-4,8(1H,5H)-dione] | 14.3 | 57.1 | 28.9 % of Control | 57.5 % of Control | – | –
11 | CN1CCC(=NO)c2ccn(CCCCN3CCC(Oc4ccc(F)cc4)CC3)c2C1=O [Compound No. 84, 1-[4-[4-(4-Fluorophenoxy)piperidin-1-yl]butyl]-4-hydroxyimino-7-methyl-6,7-dihydropyrrolo[2,3-c]-azepin-8(1H,5H)-one] | 3.8 | 60 | 67.0 % of Control | 86.5 % of Control | – | –
12 | CC(=O)ON=C1CCN(C)C(=O)c2c1ccn2CCCCN1CCC(C(=O)c2ccc(F)cc2)CC1 [Compound No. 91, 4-acetoxyimino-1-[4-[4-(4-fluorobenzoyl)piperidin-1-yl)butyl]-7-methyl-6,7-dihydropyrrolo[2,3-c]azepin-8(1H,5H)-one] | 10.3 | 16.1 | 35.5 % of Control | 58.2 % of Control | – | –
13 | CN1CCC(=NOC(=O)c2ccccc2)c2ccn(CCCCN3CCC(C(=O)c4ccc(F)cc4)CC3)c2C1=O [Compound No. 92, 4-benzoyloxyimino-1-[4-[4-(4-fluorobenzoylpiperidin)-1-yl]butyl]-7-methyl-6,7-dihydropyrrolo[2,3-c]azepin-8(1H,5H)-one] | 12.5 | 48.5 | 21.5 % of Control | 49.3 % of Control | – | –
